Experimental data reported in ChEMBL document CHEMBL1152547, “Synthesis and evaluation of anticancer activity of 2-arylamino-6-trifluoromethyl-3-(hydrazonocarbonyl)pyridines” (Bioorg Med Chem, 2009).

Assays:
[1] = Cytotoxicity against human NCI60 cells assessed as cell growth at 10 uM after 48 hrs by sulforhodamine B assay; assay type: functional; details: NCI60, 48 h, read-out: Activity
[2] = Cytotoxicity against human NCI60 cells after 48 hrs by sulforhodamine B assay; assay type: functional; details: NCI60, 48 h, read-out: pTGI (converted)
CAKI-1 = experiment: Cytotoxicity against human Caki1 cells after 48 hrs by sulforhodamine B assay; assay type: functional; details: CAKI-1, 48 h
T47D = experiment: Cytotoxicity against human T47D cells after 48 hrs by sulforhodamine B assay; assay type: functional
EKVX = experiment: Cytotoxicity against human EKVX cells after 48 hrs by sulforhodamine B assay; assay type: functional
HOP-92 = experiment: Cytotoxicity against human HOP92 cells after 48 hrs by sulforhodamine B assay; assay type: functional; details: HOP-92, 48 h
NCI-H226 = experiment: Cytotoxicity against human NCI-H226 cells after 48 hrs by sulforhodamine B assay; assay type: functional; details: NCI-H226, 48 h
SF-295 = experiment: Cytotoxicity against human SF295 cells after 48 hrs by sulforhodamine B assay; assay type: functional; details: SF-295, 48 h
TK-10 = experiment: Cytotoxicity against human TK10 cells after 48 hrs by sulforhodamine B assay; assay type: functional; details: TK-10, 48 h
PC-3 = experiment: Cytotoxicity against human PC3 cells after 48 hrs by sulforhodamine B assay; assay type: functional; details: PC-3, 48 h
MCF7 = experiment: Cytotoxicity against human MCF7 cells after 48 hrs by sulforhodamine B assay; assay type: functional; details: MCF7, 48 h
MDA-MB-231 = experiment: Cytotoxicity against human MDA-MB-231 cells after 48 hrs by sulforhodamine B assay; assay type: functional; details: MDA-MB-231, 48 h
BT-549 = experiment: Cytotoxicity against human BT549 cells after 48 hrs by sulforhodamine B assay; assay type: functional; details: BT-549, 48 h
MDA-MB-468 = experiment: Cytotoxicity against human MDA-MB-468 cells after 48 hrs by sulforhodamine B assay; assay type: functional; details: MDA-MB-468, 48 h
[3] = Toxicity in ip dosed athymic mouse assessed as body weight loss administered as single dose measured after 2 weeks; assay type: organism-based; details: in vivo
[4] = Toxicity in ip dosed athymic mouse assessed as lethality administered as single dose measured after 2 weeks; assay type: organism-based; details: in vivo

`Cc1cc(Cl)ccc1Nc1nc(C(F)(F)F)ccc1C(=O)N/N=C/c1c(Cl)cccc1Cl` gave a growth at 10 µM [1] of -6.89%, a TGI [2] of 11.7 µM and a GI50 (CAKI-1) of 0.0126 µM. It also gave a CC50 (CAKI-1; read-out: pLC50 (the source's name) (converted)) of 43.7 µM, a TGI (CAKI-1; read-out: pTGI (converted)) of 0.324 µM and a GI50 (T47D) of 0.224 µM. The TGI (T47D; read-out: pTGI (converted)) was 0.794 µM, the GI50 (EKVX) was 0.195 µM and the TGI (EKVX; read-out: pTGI (converted)) was 0.708 µM. It also gave a GI50 (HOP-92) of 0.191 µM, a TGI (HOP-92; read-out: pTGI (converted)) of 0.537 µM and a GI50 (NCI-H226) of 0.135 µM. The TGI (NCI-H226; read-out: pTGI (converted)) was 0.525 µM, the GI50 (SF-295) was 0.024 µM and the TGI (SF-295; read-out: pTGI (converted)) was 0.295 µM. For the same compound, the GI50 (TK-10) was 0.224 µM, the TGI (TK-10; read-out: pTGI (converted)) was 0.794 µM and the GI50 (PC-3) was 0.229 µM. The TGI (PC-3; read-out: pTGI (converted)) was 0.871 µM, the GI50 (MCF7) was 0.234 µM and the TGI (MCF7; read-out: pTGI (converted)) was 0.741 µM. The GI50 (MDA-MB-231) was 0.155 µM, the TGI (MDA-MB-231; read-out: pTGI (converted)) was 0.851 µM and the GI50 (BT-549) was 0.195 µM. It also gave a TGI (BT-549; read-out: pTGI (converted)) of 0.676 µM, a GI50 (MDA-MB-468) of 0.275 µM and a TGI (MDA-MB-468; read-out: pTGI (converted)) of 0.851 µM. The MTD at 336 h [3] was 400 mg/kg and the MTD at 336 h [4] was 400 mg/kg.
